Like-named read-outs stand apart in the source and are kept apart here.
How the values were obtained:
[1] = Qualitative analysis of AAI and metabolites in bile of bile duct-cannulated rats; format: in vivo, F344 rats; conditions: 30 mg/kg AAI oral, bile collected 0–3 h, 3–6 h, 6–9 h, 9–12 h, qualitative UHPLC-Q-Exactive
Experimental: Ten 6-week-old F344 rats were divided into a control group (n = 2) and a treatment group (n = 8), with equal numbers of males and females in each group. During the experiment, rats were fasted and had access to water ad libitum. Rats in the control group were administered with 0.5% CMC-Na suspension via gastric gavage. For the treatment group, rats were administered with 30 mg/kg of AAI by the same route. Rats underwent bile duct cannulation for bile sample collection. Bile samples were collected at consecutive intervals of 0–3 h, 3–6 h, 6–9 h and 9–12 h after administration.
For each bile sample, a 200 μL aliquot of bile was mixed with an equal volume of a methanol/acetonitrile (1:1, v/v) solution. After vortexing for 2 min, the mixture was centrifuged at 13,200 rpm for 10 min. The precipitate was discarded, and the supernatant was dried under nitrogen gas. The dried residue was reconstituted in 80 μL of methanol, vortexed for 2 min, and centrifuged at 13,200 rpm for 15 min. The resulting supernatant was used for further analysis.
Ultra-high-performance liquid chromatography (UHPLC) coupled with a Q-Exactive orbitrap mass spectrometer (Thermo Fisher Scientific, San Jose, CA, USA) was used to analyzed the metabolites of AAI in rat bile. An ACQUITY UPLC BEH C18 column (2.1 mm × 50 mm, 1.7 μm, Waters, Milford, MA, USA) was employed for chromatographic separation. The mobile phase consisted of water containing 5 mmol/L ammonium formate/0.1% formic acid (A) and acetonitrile (B).
Metabolites in bile samples were analyzed using electrospray ionization (ESI) in both positive and negative ion modes. The spray voltage was set at 3500 V for positive mode and 3000 V for negative mode. The ion transfer tube temperature was maintained at 350 °C with a vaporizer temperature of 300 °C. The sheath gas and auxiliary gas flow rates were 35 Arb and 10 Arb. Full-scan MS data were acquired at a resolution of 35,000 within the mass range of m/z 100–1200. For MS/MS analysis, data-dependent acquisition (DDA) was performed at a resolution of 17,500 using high-energy collision dissociation (HCD). Post-acquisition data was imported into Compound Discoverer 2.1 software to identify AAI metabolites. Blank matrices were processed alongside samples to exclude the background interferences.

[2] = Stability of AAI in rat plasma samples (QC samples); format: in vitro ADME; conditions: n = 3
Experimental: A full validation of the bioanalytical method for the quantitative analysis of AAI in rat plasma was performed in inherence to the ICH M10 guideline. Selectivity, accuracy and precision, matrix effects, calibration curve and range, dilution integrity and stability were fully validated. The analyzed QCs included a lower limit of quantitation (LLOQ) sample, low QC (LQC), medium QC (MQC) and high QC (HQC). QCs of four concentration levels (LLOQ: 1 ng/mL; LQC: 3 ng/mL; MQC: 400 ng/mL; HQC: 800 ng/mL) were prepared by spiking AAI with blank plasma collected from 6 rats.
Stability evaluation was carried out by analyzing LQCs and HQCs after storage under different conditions. Freeze–thaw stability was assessed after 3 cycles of freezing and thawing. Short-term stability was tested by keeping the LQCs and HQCs on the bench top at room temperature for the same duration as the study samples. Stability of the analyte in processed samples was tested by placing the processed samples in an autosampler for 16 h. Long-term stability was assessed by storing LQCs and HQCs at −20 °C for 15 days. The mean concentration at each QC level should be within ±15% of the nominal concentration.

Caco-2 monolayers = conditions: cited from earlier work
[3] = nine months after a single administration of AAI, cited from earlier work
[4] = Freeze–thaw stability (3 cycles), rat plasma, nominal conc. 3 ng/mL
[5] = Freeze–thaw stability (3 cycles), rat plasma, nominal conc. 800 ng/mL
[6] = Long-term stability (−20 °C, 15 days), rat plasma, nominal conc. 3 ng/mL
[7] = Long-term stability (−20 °C, 15 days), rat plasma, nominal conc. 800 ng/mL
[8] = Post-processing stability (processed samples in autosampler 16 h), nominal conc. 3 ng/mL
[9] = Post-processing stability (processed samples in autosampler 16 h), nominal conc. 800 ng/mL
[10] = Short-term stability (bench top, room temperature), rat plasma, nominal conc. 3 ng/mL
[11] = Short-term stability (bench top, room temperature), rat plasma, nominal conc. 800 ng/mL

**Q.** For `COc1cccc2c1cc([N+](=O)[O-])c1c(C(=O)O)cc3c(c12)OCO3` [AAI, Aristolochic acid I], which “detection in bile (biliary excretion)” value [1] is on record?
**A.** detected in bile collected during 0–3 h and 3–6 h intervals post-administration

**Q.** What about the “Accuracy (%Dev)” value [2, 4] of the same compound?
**A.** 4.10 %Dev

**Q.** What about the “Mean Calculated Conc.” value [2, 4] of the same compound?
**A.** 3.12 ng/mL

**Q.** And the “Accuracy (%Dev)” value [2, 5]?
**A.** 1.30 %Dev

**Q.** What about the “Mean Calculated Conc.” value [2, 5] of the same compound?
**A.** 810.42 ng/mL

**Q.** What about the “Accuracy (%Dev)” value [2, 6] of the same compound?
**A.** 6.54 %Dev

**Q.** And the “Mean Calculated Conc.” value [2, 6]?
**A.** 3.20 ng/mL

**Q.** And the “Accuracy (%Dev)” value [2, 7]?
**A.** 4.71 %Dev

**Q.** And the “Mean Calculated Conc.” value [2, 7]?
**A.** 837.66 ng/mL

**Q.** What about the “Accuracy (%Dev)” value [2, 8] of the same compound?
**A.** −10.53 %Dev

**Q.** What about the “Mean Calculated Conc.” value [2, 8] of the same compound?
**A.** 2.68 ng/mL

**Q.** What about the “Accuracy (%Dev)” value [2, 9] of the same compound?
**A.** −11.83 %Dev

**Q.** What about the “Mean Calculated Conc.” value [2, 9] of the same compound?
**A.** 705.33 ng/mL

**Q.** And the “Accuracy (%Dev)” value [2, 10]?
**A.** 3.46 %Dev

**Q.** And the “Mean Calculated Conc.” value [2, 10]?
**A.** 3.10 ng/mL

**Q.** What about the “Accuracy (%Dev)” value [2, 11] of the same compound?
**A.** −2.99 %Dev

**Q.** What about the “Mean Calculated Conc.” value [2, 11] of the same compound?
**A.** 776.07 ng/mL

**Q.** What about the “passive diffusion ability across Caco-2 monolayers” value (Caco-2 monolayers) of the same compound?
**A.** moderate passive diffusion ability

**Q.** And the “mice developing liver cancer” value ([3]; female mice)?
**A.** 41.67%

**Q.** What about the “mice developing liver cancer” value ([3]; male mice) of the same compound?
**A.** 78.57%

Reference: article PMC12656546, “Enterohepatic Recirculation-Mediated Reabsorption of Aristolochic Acid I: Revealed by Toxicokinetics and Metabolite Identification in Rats” (Toxics, 2025)
